Test results reported in patent US20200288710A1, “SUBSTITUTED SULPHONAMIDES FOR CONTROLLING ANIMAL PESTS” (BAYER CROPSCIENCE AKTIENGESELLSCHAFT, priority 2016, published 2020).

What was measured:
Type in all cases: in vivo
Meloidogyne incognita = Meloidogyne incognita test; conditions: 336 h, lettuce, after 14 days, read-out: nematicidal efficacy (formation of galls)
Method in brief: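 Gall formation on lettuce roots scored after 14 days: 0% means gall count equals untreated control, 100% means none. Sand vessels held the compound (acetone concentrate diluted in water), southern root-knot nematode egg/larvae suspension and lettuce seeds.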

Myzus persicae [1] = experiment: Myzus persicae spray test (Chinese cabbage leaf discs); conditions: foliar, 120 h, 500 g/ha, after 5-6 days, read-out: efficacy
Method in brief: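 Formulated compound in acetone/dimethylformamide, diluted in water with 1000 ppm emulsifier, was sprayed onto Brassica pekinensis leaf discs carrying mixed-stage Myzus persicae. Percent mortality was read 5-6 days later (0% = no aphids killed, 100% = all killed).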

Myzus persicae [2] = experiment: Myzus persicae oral test; conditions: 120 h, 20 ppm, oral uptake, after 5 days, read-out: efficacy
Method in brief: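 Aphids of mixed ages imbibe, through parafilm, compound solution (acetone stock, water-diluted) combined with sugar-supplemented IPL41 medium to 200 μl. Efficacy read at day 5 as percent killed, 0% meaning no deaths.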

SMILES	pest or weed control at 20 ppm (Meloidogyne incognita)	pest or weed control at 500 g/ha (Myzus persicae [1])	pest or weed control at 20 ppm (Myzus persicae [2])
Cn1cc(C(=O)NS(=O)(=O)c2ccccc2Cl)nc1-c1sccc1Cl [Example 547]	100%	90%	90%
Cn1cc(C(=O)NS(=O)(=O)c2c(Cl)cccc2C(F)(F)F)nc1-c1c(F)cccc1F [Example 372]	90%	100%	100%
Cn1cc(C(=O)NS(=O)(=O)c2cc(Cl)cnc2Cl)nc1-c1c(F)cccc1F [Example 343]	90%	100%	90%
CCCc1ccccc1S(=O)(=O)NC(=O)c1cn(C)c(-c2c(F)cccc2F)n1 [Example 403]	90%	100%	100%
Cn1cc(C(=O)NS(=O)(=O)c2cccc3c2OC(F)(F)C(F)(F)O3)nc1-c1c(F)cccc1F [Example 312]	90%	90%	100%
Cn1cc(C(=O)NS(=O)(=O)c2cccc3c2OCC3)nc1-c1c(F)cccc1F [Example 317]	90%	90%	100%
Cn1cc(C(=O)NS(=O)(=O)c2cccc(F)c2F)nc1-c1c(F)cccc1F [Example 320]	90%	100%	100%
Cc1[nH]c(-c2ccccc2Cl)nc1C(=O)NS(=O)(=O)c1ccccc1Cl [Example 238]	100%	100%	100%
CC(C)S(=O)(=O)NC(=O)c1nc(-c2ccccc2Cl)n(C)c1Cl [Example 206]	100%	100%	90%
Cn1nc(C(=O)NS(=O)(=O)c2ccccc2Cl)nc1-c1ccccc1Cl [Example 14]	90%	90%	100%
Cn1cc(C(=O)NS(=O)(=O)c2ccccc2OC(F)(F)F)nc1-c1ccccc1Cl [Example 55]	90%	90%	100%
CSc1cccc(Cl)c1S(=O)(=O)NC(=O)c1cn(C)c(-c2ccccc2Cl)n1 [Example 422]	90%	90%	100%
CCc1ccccc1-c1nc(C(=O)NS(=O)(=O)c2ccccc2C)cn1C [Example 497]	90%	90%	100%
COc1ccc(F)cc1S(=O)(=O)NC(=O)c1cn(C)c(-c2ccccc2Cl)n1 [Example 427]	90%	100%	100%
COc1ccc(Cl)c(S(=O)(=O)NC(=O)c2cn(C)c(-c3ncccc3F)n2)c1 [Example 514]	90%	100%	100%
CCn1cc(C(=O)NS(=O)(=O)c2c(Cl)cccc2Cl)nc1-c1ccccc1Cl [Example 69]	90%	90%	100%
Cn1cc(C(=O)NS(=O)(=O)c2ccc(Br)cc2Cl)nc1-c1c(F)cccc1F [Example 440]	100%	100%	100%
Cn1cc(C(=O)NS(=O)(=O)c2c(F)cccc2Cl)nc1-c1c(F)cccc1F [Example 431]	90%	90%	100%
COc1ccccc1S(=O)(=O)NC(=O)c1cn(C)c(-c2cccc(Cl)c2Cl)n1 [Example 567]	90%	100%	100%
Cn1cc(C(=O)NS(=O)(=O)c2cscc2Br)nc1-c1c(F)cccc1F [Example 183]	100%	100%	100%
Cn1cc(C(=O)NS(=O)(=O)c2ccccc2Cl)nc1-c1cccc(Cl)c1Cl [Example 513]	100%	100%	100%
Cn1cc(C(=O)NS(=O)(=O)c2cc(C(F)(F)F)ccc2Cl)nc1-c1c(F)cccc1F [Example 453]	90%	90%	100%
Cn1cc(C(=O)NS(=O)(=O)c2ccc(Cl)cc2)nc1-c1ccccc1F [Example 51]	100%	90%	90%
Cn1cc(C(=O)NS(=O)(=O)c2cccc(Cl)c2Cl)nc1-c1ccccc1Cl [Example 38]	100%	90%	100%

SMILES	pest or weed control at 20 ppm (Meloidogyne incognita)	pest or weed control at 500 g/ha (Myzus persicae [1])	pest or weed control at 20 ppm (Myzus persicae [2])
Cc1ccc(S(=O)(=O)NC(=O)c2cn(C)c(-c3c(F)cccc3F)n2)c(C)c1 [Example 443]	100%	90%	100%
Cn1cc(C(=O)NS(=O)(=O)c2ccc(Cl)cc2)nc1-c1c(F)cccc1Cl [Example 114]	100%	90%	100%
COc1ccc(Cl)cc1S(=O)(=O)NC(=O)c1cn(C)c(-c2c(F)cccc2F)n1 [Example 393]	90%	100%	100%
CC(C)Nc1cccc(F)c1S(=O)(=O)NC(=O)c1cn(C)c(-c2c(F)cccc2F)n1 [Example 178]	100%	90%	100%
Cn1cc(C(=O)NS(=O)(=O)c2ccccc2Cl)nc1-c1cc(F)ccc1F [Example 515]	90%	90%	100%
Cn1cc(C(=O)NS(=O)(=O)c2ccc(Cl)s2)nc1-c1c(F)cccc1F [Example 352]	100%	90%	100%
Cn1cc(C(=O)NS(=O)(=O)c2ccccc2Cl)nc1-c1cccc(F)c1F [Example 512]	90%	90%	100%
CCc1ccccc1S(=O)(=O)NC(=O)c1cc(C)n(-c2ncccc2Cl)n1 [Example 284]	90%	100%	100%
COc1ccc(Br)c(S(=O)(=O)NC(=O)c2cn(C)c(-c3cccc(Cl)c3Cl)n2)c1 [Example 557]	90%	90%	100%
Cn1cc(C(=O)NS(=O)(=O)c2c(Cl)cccc2Cl)nc1-c1ncccc1Cl [Example 588]	90%	90%	100%
COc1ccc(Br)cc1S(=O)(=O)NC(=O)c1cn(C)c(-c2c(F)cccc2Cl)n1 [Example 156]	90%	100%	100%
COc1cc(C(=O)NS(=O)(=O)c2ccccc2Cl)nn1-c1ccccc1Cl [Example 275]	100%	90%	100%
Cn1cc(C(=O)NS(=O)(=O)c2sccc2Br)nc1-c1c(F)cccc1F [Example 354]	90%	100%	100%
Cc1cc(C(=O)NS(=O)(=O)c2ccccc2Br)nn1-c1ncccc1Cl [Example 283]	90%	100%	100%
Cn1cc(C(=O)NS(=O)(=O)c2ccccc2Br)nc1-c1cccc(Cl)c1Cl [Example 555]	90%	90%	100%
Cn1cc(C(=O)NS(=O)(=O)c2ccc(Cl)cc2)nc1-c1c(Cl)cccc1Cl [Example 43]	100%	90%	90%
CCn1cc(C(=O)NS(=O)(=O)c2ccccc2Cl)nc1-c1ccccc1Cl [Example 67]	90%	90%	100%
Cc1ccccc1-c1nc(C(=O)NS(=O)(=O)c2c(Cl)cccc2Cl)cn1C [Example 99]	90%	90%	100%
COc1ccc(Cl)c(S(=O)(=O)NC(=O)c2cn(C)c(-c3ccccc3C)n2)c1 [Example 98]	90%	90%	100%
CCSc1ccccc1S(=O)(=O)NC(=O)c1cn(C)c(-c2c(F)cccc2F)n1 [Example 169]	90%	100%	100%
Cn1cc(C(=O)NS(=O)(=O)c2c(Cl)cccc2Cl)nc1-c1ccccc1F [Example 96]	100%	100%	100%
Cn1cc(C(=O)NS(=O)(=O)c2sccc2Br)nc1-c1ccccc1Cl [Example 421]	90%	100%	100%
COc1ccc(F)cc1S(=O)(=O)NC(=O)c1cn(C)c(-c2ncccc2F)n1 [Example 596]	90%	100%	100%
